Source: patent US20060263802A1 (priority 2003, published 2006)

What was measured:
Assay type in all cases: binding
[1] = test system: human monoclonal antibody CRJB
[2] = test system: human monoclonal antibody CR57
[3] = test system: human monoclonal antibody CRJA
[4] = test system: human monoclonal antibody CRJB; remark: listed apart in the source
[5] = test system: human monoclonal antibody CR57; remark: listed apart in the source
[6] = test system: human monoclonal antibody CRJA; remark: listed apart in the source

| Sequence | Binding of CRJB to linear peptide (PEPSCAN-ELISA signal) [1] | Binding of CR57 to linear peptide (PEPSCAN-ELISA signal) [2] | Binding of CRJA to linear peptide (PEPSCAN-ELISA signal) [3] | Binding of CRJB (10 μg/ml) to looped/cyclic peptide (PEPSCAN-ELISA signal) [4] | Binding of CR57 (10 μg/ml) to looped/cyclic peptide (PEPSCAN-ELISA signal) [5] | Binding of CRJA (10 μg/ml) to looped/cyclic peptide (PEPSCAN-ELISA signal) [6] | Binding of CRJB (10 μg/ml) to looped/cyclic peptide (PEPSCAN-ELISA) [4] | Binding of CR57 (10 μg/ml) to looped/cyclic peptide (PEPSCAN-ELISA) [5] | Binding of CRJA (10 μg/ml) to looped/cyclic peptide (PEPSCAN-ELISA) [6] | binding of antibody CR57 to linear peptide (PEPSCAN OD) [2] | Binding of human monoclonal antibody CRJB to linear peptide (PEPSCAN-ELISA signal) [1] | Binding of human monoclonal antibody CR57 to linear peptide (PEPSCAN-ELISA signal) [2] | Binding of human monoclonal antibody CRJA to linear peptide (PEPSCAN-ELISA signal) [3] | Binding of CRJB to looped/cyclic peptide (PEPSCAN-ELISA signal) [4] | Binding of CR57 to looped/cyclic peptide (PEPSCAN-ELISA signal) [5] | Binding of CRJA to looped/cyclic peptide (PEPSCAN-ELISA signal) [6] | binding of antibody CRJA to looped/cyclic peptide (PEPSCAN OD) [6] |
| --- | --- | --- | --- | --- | --- | --- | --- | --- | --- | --- | --- | --- | --- | --- | --- | --- | --- |
| LDKLGPWSPIDIHHL | 99 | 55 | 59 | 65 | 93 | 82 | – | – | – | – | – | – | – | – | – | – | – |
| HMELLESSVIPLVHP | 129 | 110 | 114 | – | – | – | 104 | 118 | 106 | – | – | – | – | – | – | – | – |
| LKGACKLKLCGVLGL | 90 | 340 | 100 | – | – | – | 76 | 105 | 87 | bound | – | – | – | – | – | – | – |
| LIPEMQSSLLQQHME | 111 | 89 | 107 | – | – | – | 85 | 98 | 91 | – | – | – | – | – | – | – | – |
| PENPRLGMSCDIFTN | 111 | 83 | 94 | 98 | 116 | 83 | – | – | – | – | – | – | – | – | – | – | – |
| KAYTIFNKTLMEADA | 123 | 101 | 76 | – | – | – | 92 | 137 | 104 | – | – | – | – | – | – | – | – |
| KWCPPDQLVNLHDFR | 113 | 89 | 97 | – | – | – | 100 | 118 | 102 | – | – | – | – | – | – | – | – |
| TWNEILPSKGCLRVG | 146 | 97 | 93 | – | – | – | 113 | 132 | 127 | – | – | – | – | – | – | – | – |
| AAYNWKMAGDPRYEE | 106 | 68 | 78 | 90 | 104 | 78 | – | – | – | – | – | – | – | – | – | – | – |
| VHLPDVHNQVSGVDL | – | – | – | – | – | – | – | – | – | – | 114 | 110 | 104 | 94 | 105 | 92 | – |
| DLDPYDRSLHSRVFP | 152 | 111 | 107 | 68 | 90 | 92 | – | – | – | – | – | – | – | – | – | – | – |
| GFGKAYTIFNKTLME | 123 | 78 | 98 | – | – | – | 83 | 94 | 86 | – | – | – | – | – | – | – | – |
| FRRLSHLRKLVPGFG | 108 | 90 | 106 | – | – | – | 54 | 128 | 111 | – | – | – | – | – | – | – | – |
| SKGSETCGFVDERGL | 102 | 92 | 104 | – | – | – | 77 | 104 | 99 | – | – | – | – | – | – | – | – |
| LKVGYILAIKMNGFT | 112 | 78 | 68 | 74 | 58 | 76 | – | – | – | – | – | – | – | – | – | – | – |
| HPLADPSTVFKDGDE | – | – | – | – | – | – | – | – | – | – | 141 | 74 | 100 | 93 | 111 | 115 | – |
| SFRRLSHLRKLVPGF | 110 | 92 | 75 | – | – | – | 87 | 143 | 320 | – | – | – | – | – | – | – | clearly bound |
| ESIMTTKSVSFRRLS | 111 | 62 | 61 | – | – | – | 92 | 80 | 49 | – | – | – | – | – | – | – | – |
| FKDGDEAEDFVEVHL | – | – | – | – | – | – | – | – | – | – | 76 | 65 | 85 | 80 | 106 | 97 | – |
| KCSGVAVSSTYCSTN | 130 | 88 | 111 | 83 | 101 | 78 | – | – | – | – | – | – | – | – | – | – | – |
| HYKSVRTWNEILPSK | 130 | 80 | 87 | – | – | – | 101 | 112 | 100 | – | – | – | – | – | – | – | – |
| SYMELKVGYILAIKM | 123 | 65 | 143 | 92 | 106 | 96 | – | – | – | – | – | – | – | – | – | – | – |
| CDIFTNSRGKRASKG | 104 | 42 | 133 | 90 | 1 | 101 | – | – | – | – | – | – | – | – | – | – | – |
| EELVRKREECLDALE | 112 | 69 | 118 | – | – | – | 2 | 79 | 104 | – | – | – | – | – | – | – | – |
| NSRGKRASKGSETCG | 100 | 92 | 63 | 60 | 107 | 71 | – | – | – | – | – | – | – | – | – | – | – |
| LYKSLKGACKLKLCG | 136 | 93 | 94 | – | – | – | 79 | 91 | 107 | – | – | – | – | – | – | – | – |
| LRLMDGTWVAMQTSN | 114 | 103 | 96 | – | – | – | 72 | 98 | 92 | – | – | – | – | – | – | – | – |
| FRSDEIEHLVVEELV | 114 | 86 | 101 | – | – | – | 79 | 132 | 94 | – | – | – | – | – | – | – | – |
| LDPYDRSLHSRVFPS | 142 | 99 | 113 | 83 | 88 | 98 | – | – | – | – | – | – | – | – | – | – | – |
